Measurements: ChEMBL document CHEMBL5233210, “Pyrazolone structural motif in medicinal chemistry: Retrospect and prospect” (Eur J Med Chem, 2020)
≈ marks a conversion by molar mass, not a printed value.

What was measured:
[1] = test system: Mycobacterium tuberculosis; assay: Antibacterial activity against Mycobacterium tuberculosis H37Rv; format: functional
[2] = Selectivity index, ratio of IC50 mouse […] 3T3 cells to MIC for Mycobacterium tuberculosis H37Rv; format: toxicity; conditions: NIH 3T3 cells, read-out: Selectivity Index
[3] = target: Liver carboxylesterase 1 (Homo sapiens, UniProt P23141); assay: Inhibition of human CE1
[4] = Inhibition of porcine alpha amylase; set-up: species or system Sus scrofa
[5] = target: Alpha-glucosidase (Saccharomyces cerevisiae S288c, UniProt P53341+P38158+P07265); assay: Inhibition of Saccharomyces cerevisiae alpha glucosidase; format: protein assay
[6] = species on record: Mus musculus; assay: Antihyperglycemic activity in mouse assessed as reduction in serum glucose ratio after 2 hrs; format: functional; set-up: scale not given: the % may be the effect or the level left
[7] = species on record: Mus musculus; assay: Antihyperglycemic activity in mouse assessed as reduction in serum glucose ratio after 7 days; format: functional; set-up: scale not given: the % may be the effect or the level left; conditions: time 7 day
[8] = target: Aldo-keto reductase family 1 member B1 (Homo sapiens, UniProt P15121); assay: Inhibition of aldose reductase (unknown origin)
[9] = test system: Mus musculus; assay: Antihyperglycemic activity in db/db mouse assessed as decrease in blood glucose level at 100 mg/kg; format: functional; set-up: scale not given: the % may be the effect or the level left
[10] = test system: Mus musculus; assay: Antihyperglycemic activity in db/db mouse assessed as decrease in blood glucose level at 20 mg/kg; format: functional; set-up: scale not given: the % may be the effect or the level left
[11] = test system: Mus musculus; assay: Antihyperglycemic activity in db/db mouse assessed as decrease in blood glucose level at 2 mg/kg; format: functional; set-up: scale not given: the % may be the effect or the level left

Liver carboxylesterase 1, sequence (P23141 whole entry): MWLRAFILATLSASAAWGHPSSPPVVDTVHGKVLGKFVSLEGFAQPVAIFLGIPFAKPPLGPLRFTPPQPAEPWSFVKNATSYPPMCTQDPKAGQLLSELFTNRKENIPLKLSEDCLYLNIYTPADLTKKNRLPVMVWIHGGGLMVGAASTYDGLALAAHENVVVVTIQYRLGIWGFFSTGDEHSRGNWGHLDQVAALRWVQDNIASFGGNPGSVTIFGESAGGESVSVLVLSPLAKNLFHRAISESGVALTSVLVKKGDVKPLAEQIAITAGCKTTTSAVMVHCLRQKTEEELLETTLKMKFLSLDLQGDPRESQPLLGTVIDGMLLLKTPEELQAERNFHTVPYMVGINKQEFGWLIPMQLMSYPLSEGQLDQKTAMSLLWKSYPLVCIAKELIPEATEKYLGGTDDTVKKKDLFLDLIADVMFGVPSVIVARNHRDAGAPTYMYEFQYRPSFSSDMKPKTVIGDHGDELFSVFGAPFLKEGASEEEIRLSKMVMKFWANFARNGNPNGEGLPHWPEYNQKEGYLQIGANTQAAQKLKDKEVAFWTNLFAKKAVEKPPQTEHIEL

SMILES: CC1=NN(NCC(=O)c2ccccc2)C(=O)/C1=N/Nn1c(-c2ccccc2)nc2ccccc2c1=O
- MIC [1]: 3.11 µg/mL (≈ 6.49 µM)
- selectivity ratio [2]: 26.4

SMILES: Cc1ccc(C2=NN(c3ccccc3)C(=O)C23N=C([S@@+](C)[O-])N(C(=O)OC(C)(C)C)[C@]32C(=O)N(Cc3ccccc3)c3ccccc32)cc1 (stereo partly specified)
- IC50 [3]: 390 nM

SMILES: Cc1c(C(=O)CS(=O)(=O)c2ccccc2)c(=O)n(-c2ccccc2)n1C
- IC50 [4]: 14.7 µM
- IC50 [5]: 63.66 µM
- Activity [6]: 32.16%
- Activity [7]: 13.34%

SMILES: NC(=S)N1N=C(N)/C(=C\c2cc(-c3ccc(Cl)cc3)nn2-c2ccccc2)C1=O
- IC50 [8]: 6.3 µM

SMILES: CSc1ccc(Cc2c(C(F)(F)F)n[nH]c2O)cc1
- Activity [9]: 68%
- Activity [10]: 57%
- Activity [11]: 30%
